In US20220087263A1, “HERBICIDE COMPOSITION AND APPLICATION THEREOF” (SHENYANG SINOCHEM AGROCHEMICALS R&D CO., LTD., priority 2018, published 2022):
Values joined by “and” are separate entries in the source; they are usually repeats but may differ in a detail not shown here. Equal entries are not always repeated.

Legend:
[1] = system: barnyard grass; assay: Greenhouse test of weed control effect, combined action evaluated by Gowing method; type: in vivo; conditions: single component
Procedure: (§1) Embodiment 1 The synergistic effects of the compound contained with component A and component B is conducted in greenhouse in the present invention, and the component A takes A-3, A-4 and A-5 compounds in the compound table 1 of the general formula I as examples.
(§2) The synergistic effects of the composition on the weeds is defined through greenhouse test.
(§3) A weed culture method is: respectively planting weed seeds of piemarker and barnyard grass quantitatively in a paper cup with a diameter of 7 cm and containing nutrient soil; after planting, covering soil, pressing and watering; and then culturing in a greenhouse. The grass weeds grow to 5-7 leaf stages; the broadleaf weeds grow to 6-8 leaf stages; pre-emergence and post-emergence treatment are conducted with three times repeats. The weeds are placed in the greenhouse after treatment when the leaf without water dried naturally in air, and cultured with normal method. According to the inhibited condition or dying condition of the weeds, after treatment 30 days, visual inspection of the control effect is conducted (see Table 2-Table 7).
(§4) A herbicide formulation preparing method: all test samples are technical dissolved by a mixed solvent of acetone and dimethylformyl (1:2, V/V) firstly; then 1‰ of Tween 80 water is used to prepare mother liquor of a certain concentration; and then processing solutions of different doses are prepared according to test schemes.
(§5) The present invention adopts a Gowing method for evaluating the combined action of the proposed composition.
(§6) X—the weed control effect when the dosage of the component A of the herbicide is P;
(§7) Y—the weed control effect when the dosage of the component B of the herbicide is Q;
(§8) E0—the theoretical control effect when the dosage of the component A of the herbicide is P+the theoretical control effect when the dosage of the component B of the herbicide is Q;
(§9) E—the measured control effect after the component A of the herbicide and the component B of the herbicide are mixed in the above proportion.
(§10) When E−E0>10%, the synergy is achieved; when E−E0<−10%, antagonism is achieved; when the value of E−E0 is between ±10%, the addition effect is achieved.

[2] = system: piemarker; assay: as above; type: in vivo; conditions: single component
Procedure: as §1, §2, §3, §4, §5, §6, §7, §8, §9, §10

[3] = dose 7.5 ga.i./hm^2, visual inspection 30 days after treatment
[4] = dose 30 ga.i./hm^2, visual inspection 30 days after treatment
[5] = dose 120 ga.i./hm^2, visual inspection 30 days after treatment

Q: With `c1cc[n+]2c(c1)-c1cccc[n+]1CC2` [Diquat, diquat] as the compound, how does the “Measured Value E (weed control effect)” value [1, 3] read?
A: The value was 30% and 20%.

Q: And the “Measured Value E (weed control effect)” value [1, 4]?
A: Its value is 50% and 45% and 40%.

Q: What about the “Measured Value E (weed control effect)” value [1, 5] of the same compound?
A: The value was 65% and 60% and 55%.

Q: What about the “Measured Value E (weed control effect)” value [2, 3] of the same compound?
A: Its value is 20% and 15% and 30%.

Q: What about the “Measured Value E (weed control effect)” value [2, 4] of the same compound?
A: The value was 50% and 55% and 45%.

Q: And the “Measured Value E (weed control effect)” value [2, 5]?
A: Its value is 60% and 65% and 55%.
